Laboratory results: patent US8247211B2, “Glycopeptide antibiotics” (American Cyanamid Company, priority 2001, dated 2012)

Experiments:
Experiment in all cases: In vitro antibacterial evaluation: minimum inhibitory concentration (MIC), broth dilution method
Assay type in all cases: cell-based
[1] = system: Escherichia coli
Procedure: (§1) The minimum inhibitory concentration (MIC), the lowest concentration of the antibiotic which inhibits growth of the test organism, is determined by the broth dilution method using Muller-Hinton II […] (Baltimore Biological Laboratories) following the recommendations of the National Committee for Clinical Laboratory Standards [Methods for dilution antimicrobial susceptibility tests for bacteria that grow aerobically, approved standard M7-A2, National Committee for Clinical Laboratory Standards, Villanova, Pa].
(§2) An inoculum level of 5×10^5 CFU/mL, and a range of antibiotic concentrations (64-0.06 μg/mL) is used. […] The test organisms include a spectrum of Gram-positive bacteria comprised of Staphylococcus sp., Streptococcus sp. and Enterococcus sp. These organisms include recent clinical isolates that are resistant to methicillin, penicillin and/or vancomycin.

[2] = system: Streptococcus sp.
Procedure: as §1, §2

[3] = system: Enterococcus sp.
Procedure: as §1, §2

[4] = system: Staphylococcus sp.; conditions: for MIC Staphylococcus aureus (ATCC 29213) / MIC Staphylococcus aureus (GC 1131) / MIC Staphylococcus aureus (GC 3051) / MIC Staphylococcus aureus (GC 3053) / MIC Staphylococcus aureus (GC 4541) / MIC Staphylococcus aureus (GC 4542) / MIC Staphylococcus aureus (GC 4544) / MIC Staphylococcus aureus (GC 4545): broth dilution
Procedure: as §1, §2

[5] = broth dilution, inoculum 5×10^5 CFU/mL, 18 hours at 35° C.
[6] = 5×10^5 CFU/mL, 18 hours at 35° C.

CC(c1ccccc1)C1NC(=O)CNC(=O)C(CO)NC(=O)C(C(O)C2CNC(=N)N2C2OC(CO)C(O)C(O)C2O)NC(=O)C(C(O)C2CNC(=N)N2)NC(=O)C(Cc2ccc(OC3OC(CO)C(OC4OC5COC(c6ccc(Oc7ccc(C(C)(C)C)cc7)cc6)OC5C(O)C4O)C(O)C3O)cc2)NC1=O (stereo not drawn) [Example 181, Cyclo[glycyl-β-methylphenylalanyl-O-[4-O-[4,6-O-[4-(4-tert-butylphenoxy)benzylidene]hexopyranosyl]hexopyranosyl]tyrosyl-3-(2-iminoimidazolidin-4-yl)seryl-3-(3-hexopyranosyl-2-iminoimidazolidin-4-yl)serylseryl]]
<0.06 µg/mL: MIC Streptococcus agalactiae (GC 4564) [2, 5] | MIC Streptococcus pneumoniae (ATCC 6301) [2, 5] | MIC Streptococcus pneumoniae (GC 1894) [2, 5] | MIC Streptococcus pneumoniae (GC 4565) [2, 5] | MIC Streptococcus pneumoniae (ATCC 6301) ([2]; strain ATCC 6301) | MIC Streptococcus pneumoniae (GC 1894) ([2]; strain GC 1894) | MIC Streptococcus agalactiae (GC 4564) ([2]; strain GC 4564) | MIC Streptococcus pneumoniae (GC 4565) ([2]; strain GC 4565)
1 µg/mL: MIC Enterococcus faecalis (GC 4553) [3, 5] | MIC Enterococcus faecalis (GC 4553) ([3]; strain GC 4553) | MIC Coagulase Negative Staphylococcus (GC 4549) ([4]; strain GC 4549)
2 µg/mL: MIC Enterococcus faecalis (ATCC 29212) [3, 5] | MIC Enterococcus faecalis (GC 2242) [3, 5] | MIC Enterococcus faecalis (GC 4552) [3, 5] | MIC Enterococcus faecalis (GC 4554) [3, 5] | MIC Enterococcus faecalis (GC 6189) [3, 5] | MIC Enterococcus faecium (GC 2243) [3, 5] | MIC Enterococcus faecalis (ATCC 29212) ([3]; strain ATCC 29212) | MIC Enterococcus faecalis (GC 2242) ([3]; strain GC 2242) | MIC Enterococcus faecium (GC 2243) ([3]; strain GC 2243) | MIC Enterococcus faecalis (GC 4552) ([3]; strain GC 4552) | MIC Enterococcus faecalis (GC 4554) ([3]; strain GC 4554) | MIC Enterococcus faecalis (GC 6189) ([3]; strain GC 6189) | MIC Coagulase Negative Staphylococcus (GC 4548) ([4]; strain GC 4548) | MIC Coagulase Negative Staphylococcus (GC 4551) ([4]; strain GC 4551) | MIC Coagulase Negative Staphylococcus (GC 6257) ([4]; strain GC 6257)
4 µg/mL: MIC Enterococcus avium (GC 4558) [3, 5] | MIC Enterococcus faecalis (GC 2691) [3, 5] | MIC Enterococcus faecalis (GC 3059) [3, 5] | MIC Enterococcus faecium (GC 4556) [3, 5] | MIC Enterococcus faecium (GC 4557) [3, 5] | MIC Enterococcus faecalis (GC 2691) ([3]; strain GC 2691) | MIC Enterococcus faecalis (GC 3059) ([3]; strain GC 3059) | MIC Enterococcus faecium (GC 4556) ([3]; strain GC 4556) | MIC Enterococcus faecium (GC 4557) ([3]; strain GC 4557) | MIC Enterococcus avium (GC 4558) ([3]; strain GC 4558) | MIC Staphylococcus aureus (ATCC 29213) [4, 6] | MIC Staphylococcus aureus (GC 1131) [4, 6] | MIC Staphylococcus aureus (GC 3051) [4, 6] | MIC Staphylococcus aureus (GC 3053) [4, 6] | MIC Staphylococcus aureus (GC 4541) [4, 6] | MIC Staphylococcus aureus (GC 4542) [4, 6] | MIC Staphylococcus aureus (GC 4544) [4, 6] | MIC Staphylococcus aureus (GC 4545) [4, 6] | MIC Staphylococcus aureus (ATCC 29213) ([4]; strain ATCC 29213, 18 hours at 35° C.) | MIC Staphylococcus aureus (GC 1131) ([4]; strain GC 1131, 18 hours at 35° C.) | MIC Staphylococcus aureus (GC 3051) ([4]; strain GC 3051, 18 hours at 35° C.) | MIC Staphylococcus aureus (GC 3053) ([4]; strain GC 3053, 18 hours at 35° C.) | MIC Staphylococcus aureus (GC 4541) ([4]; strain GC 4541, 18 hours at 35° C.) | MIC Staphylococcus aureus (GC 4542) ([4]; strain GC 4542, 18 hours at 35° C.) | MIC Staphylococcus aureus-SMITH (GC 4543) ([4]; strain GC 4543) | MIC Staphylococcus aureus (GC 4544) ([4]; strain GC 4544, 18 hours at 35° C.) | MIC Staphylococcus aureus (GC 4545) ([4]; strain GC 4545, 18 hours at 35° C.)
0.5 µg/mL: MIC Streptococcus pyogenes (GC 4563) [2, 5] | MIC Streptococcus pyogenes (GC 4563) ([2]; strain GC 4563)
8 µg/mL: MIC Staphylococcus haemolyticus (GC 4546) ([4]; strain GC 4546) | MIC Coagulase Negative Staphylococcus (GC 4547) ([4]; strain GC 4547)
16 µg/mL: MIC Escherichi coli (GC 4560) ([1]; strain GC 4560)
>64 µg/mL: MIC Escherichia coli (ATCC 25922) ([1]; strain ATCC 25922) | MIC Escherichia coli (GC 4559) ([1]; strain GC 4559)

COc1ccc2cc(COC3C(OC4C(CO)OC(Oc5ccc(CC6NC(=O)C(C(C)c7ccccc7)NC(=O)CNC(=O)C(CO)NC(=O)C(CC7CNC(=N)N7C7OC(CO)C(O)C(O)C7O)NC(=O)C(CC7CNC(=N)N7)NC6=O)cc5)C(O)C4O)OC(CO)C(O)C3O)ccc2c1 (stereo not shown) [Example 245c, Cyclo[3-(2-iminoimidazolidin-4-yl)alanyl-3-(3-hexopyranosyl-2-iminoimidazolidin-4-yl)-alanylserylglycyl-62-methylphenylalanyl-O-[4-O-[2-O-[(6-methoxy-2-naphthyl)methyl]-hexopyranosyl]hexopyranosyl]tyrosyl]]
64 µg/mL: MIC Streptococcus pneumoniae (ATCC 6301) ([2]; Streptococcus pneumoniae (ATCC 6301), 18 hours at 35° C.) | MIC Streptococcus pneumoniae (GC 4565) ([2]; Streptococcus pneumoniae (GC 4565), 18 hours at 35° C.) | MIC Streptococcus pneumoniae (ATCC 6301) [2, 5] | MIC Streptococcus pneumoniae (GC 4565) [2, 5] | MIC Enterococcus faecium (GC 4557) ([3]; Enterococcus faecium (GC 4557), 18 hours at 35° C.) | MIC Coagulase Negative Staphylococcus (GC 4549) ([4]; Coagulase Negative Staphylococcus (GC 4549), 18 hours at 35° C.) | MIC Coagulase Negative Staphylococcus (GC 6257) ([4]; Coagulase Negative Staphylococcus (GC 6257), 18 hours at 35° C.)
32 µg/mL: MIC Escherichia coli (GC 4560) ([1]; Escherichia coli (GC 4560), 18 hours at 35° C.) | MIC Streptococcus pneumoniae (GC 1894) ([2]; Streptococcus pneumoniae (GC 1894), 18 hours at 35° C.) | MIC Streptococcus pneumoniae (GC 1894) [2, 5]
